Data reported in patent US11807648B2, “Process for preparing substituted polycyclic pyridone derivative and crystal thereof” (priority 2016, dated 2023).

Key:
CYP3A4 [1] = biological target: T1, CYP3A4 (Homo sapiens, UniProt P08684); test: biochemical; format: in vitro ADME; parameters: Using commercially available pooled human hepatic microsome; from tissue; conditions: pooled human hepatic microsome 0.2 mg protein/mL, 15 minutes, 37° C.
Source text: (§1) Test Example 3: CYP Inhibition Test
(§2) Using commercially available pooled human hepatic microsome and employing, as a reference, typical substrate metabolism reactions of human main five CYP enzyme forms (CYP1A2, 2C9, 2C19, 2D6, 3A4), i.e., 7-ethoxyresorufin O-deethylation (CYP1A2), tolbutamide methyl-hydroxylation (CYP2C9), mephenytoin 4′-hydroxylation (CYP2C19), dextromethorphan O-demethylation (CYP2D6), and terfenedine hydroxylation (CYP3A4), the degree of inhibition by Compound (V) was assessed for each metabolite production.
The reaction conditions were as follows: […]
For each of the five substances, a reaction solution was prepared on a 96-well plate by adding the substrate, human hepatic microsome and Compound (V) to 50 mmol/L Hepes buffer in the proportion as described above. […] After centrifugation at 3000 rpm for minutes, resorufin (CYP1A2 metabolite) in the supernatant was measured by fluorescent multi-label counter, and hydroxytolbutamide (CYP2C9 metabolite), 4′-hydroxymephenytoin (CYP2C19 metabolite), dextrorphan (CYP2D6 metabolite) and terfenadine alcohol (CYP3A4 metabolite) were measured by LC/MS/MS. […]

[2] = tested on: red blood cell suspension prepared from ovine defibrinated blood of sheep; test: Photohemolysis test; format: cell-based; conditions: UVA and UVB irradiation 10 J/cm^2, 290-400 nm
Description: Test Example 12: Photohemolysis Test
Compound (V) was dissolved at a predetermined concentration and mixed on a microplate with a […] (2.5 v/v %) prepared from ovine defibrinated blood of sheep. Light irradiation in the UVA and UVB wavelength regions (10 J/cm^2, 290-400 nm) was performed using ultraviolet fluorescent lamp (GL20SE lamp, Sankyo Denki and FL20S-BLB lamp, Panasonic). The mixed solution after the irradiation was collected and centrifuged. After centrifugation, the supernatant was collected and transferred to a microplate, and the absorbance (at 540 or 630 nm) of the supernatant was measured. The absorbance at 540 and 630 nm were used as an index of biological membrane damage (% light hemolysis) and lipid membrane peroxidation (methemoglobin production), respectively. (−): less than 10% for photohemolysis rate and less than 0.05 for the change in absorbance at 630 nm; (+): 10% or more for photohemolysis rate and 0.05 or more for the change in absorbance at 630 nm.

CYP3A4 [3] = biological target: T1, CYP3A4; format: in vitro ADME; parameters: host or cells: Escherichia coli; conditions: pre-reaction time 0 or 30 minutes, 7-BFC substrate
Description: Test Example 6: CYP3A4 Fluorescent MBI Test
The CYP3A4 fluorescent MBI test investigates enhancement of CYP3A4 inhibition by Compound (V) in metabolism reaction. 7-benzyloxytrifluoromethylcoumarin (7-BFC) was debenzylated by CYP3A4 enzyme (enzyme expressed in Escherichia coli) and a metabolite, 7-hydroxytrifluoromethylcoumarin (7-HFC) which emits fluorescent light was produced. The test was performed using 7-HFC production reaction as an index.
The reaction conditions were as follows: Substrate, 5.6 μmol/L 7-BFC; pre-reaction time, 0 or 30 minutes; reaction time, 15 minutes; reaction temperature, 25° C. […]
A pre-reaction solution containing the enzyme and Compound (V) in K-Pi buffer (pH 7.4) as described above was added to a 96-well plate. […] For each of the plates on which the reaction was performed, the fluorescent value of the metabolite 7-HFC was measured by fluorescent plate reader (Ex=420 nm, Em=535 nm).
As a control for remaining activity, DMSO (i.e., the solvent for dissolving Compound (V)) was added solely to the reaction system, and the remaining activity (%) was calculated for each concentration of Compound (V) in the solution. The IC50 value was calculated by reverse-presumption by logistic model using the concentration and the inhibition rate. […]

[4] = format: in vitro ADME; conditions: 2 μmol/L of the compound, human liver microsomes 0.5 mg protein/mL, 30 minutes, 37° C., NADPH
Description: Test Example 5: Metabolism Stability Test
Compound (V) was reacted with commercially available pooled human hepatic microsomes for a certain time. The remaining rate of the compound was calculated by comparing the reacted sample and the unreacted sample to assess the degree of metabolism of Compound (V) in liver.
The compound was reacted in 0.2 mL of buffer (50 mmol/L Tris-HCl pH 7.4, 150 mmol/L potassium chloride, 10 mmol/L magnesium chloride) containing 0.5 mg protein/mL of human liver microsomes at 37° C. for 0 minute or 30 minutes in the presence of 1 mmol/L NADPH (oxidative reaction). After the reaction, 50 μL of the reaction solution was added to 100 μL of methanol/acetonitrile=1/1 (v/v), mixed and centrifuged at 3000 rpm for 15 minutes. The amount of Compound (V) in the supernatant was measured by LC/MS/MS, and the remaining rate of the compound after the reaction was calculated, with the amount of the compound at 0 minute of reaction time being 100%. The hydrolysis reaction was carried out in the absence of NADPH, and the glucuronidation reaction was carried out in the presence of 5 mmol/L UDP-glucuronic acid instead of NADPH, and the subsequent procedure was carried out in the same manner as described.

CYP2D6 = biological target: T2, CYP2D6 (Homo sapiens, UniProt P10635); test: biochemical; format: in vitro ADME; conditions: pooled human hepatic microsome 0.2 mg protein/mL, 15 minutes, 37° C.
T2 construct: Using commercially available pooled human hepatic microsome; from tissue
T2 sequence (P10635 whole entry): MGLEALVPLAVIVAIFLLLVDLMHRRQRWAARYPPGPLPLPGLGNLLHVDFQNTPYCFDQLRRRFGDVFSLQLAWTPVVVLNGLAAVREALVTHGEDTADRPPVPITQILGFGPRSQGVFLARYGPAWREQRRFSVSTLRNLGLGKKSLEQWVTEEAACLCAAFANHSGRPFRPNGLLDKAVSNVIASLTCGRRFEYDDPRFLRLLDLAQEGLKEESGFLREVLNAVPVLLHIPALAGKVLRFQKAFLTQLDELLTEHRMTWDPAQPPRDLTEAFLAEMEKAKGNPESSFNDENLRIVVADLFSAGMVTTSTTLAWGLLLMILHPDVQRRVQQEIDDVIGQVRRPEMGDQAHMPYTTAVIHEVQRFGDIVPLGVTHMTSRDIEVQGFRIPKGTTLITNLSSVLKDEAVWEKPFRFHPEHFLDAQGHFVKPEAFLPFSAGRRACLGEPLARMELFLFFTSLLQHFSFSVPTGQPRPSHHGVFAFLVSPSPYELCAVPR
Source text: as §1, §2
(§3) The reaction conditions were as follows:
(§4) Substrate: 0.5 μmol/L ethoxyresorufin (CYP1A2), 100 μmol/L tolbutamide (CYP2C9), 50 μmol/L S-mephenytoin (CYP2C19), 5 μmol/L dextromethorphan (CYP2D6), 1 μmol/L terfenedine (CYP3A4); Reaction time: 15 minutes; Reaction temperature: 37° C.; Enzyme: pooled human hepatic microsome 0.2 mg protein/mL; Concentration of Compound (V): 1, 5, 10, 20 μmol/L (four points).
(§5) For each of the five substances, a reaction solution was prepared on a 96-well plate by adding the substrate, human hepatic microsome and Compound (V) to 50 mmol/L Hepes buffer in the proportion as described above. NADPH, which is a cofactor, was added to initiate the metabolism reaction. After incubating at 37° C. for 15 minutes, a methanol/acetonitrile solution (1/1 (v/v)) was added to quench the reaction. After centrifugation at 3000 rpm for minutes, resorufin (CYP1A2 metabolite) in the supernatant was measured by fluorescent multi-label counter, and hydroxytolbutamide (CYP2C9 metabolite), 4′-hydroxymephenytoin (CYP2C19 metabolite), dextrorphan (CYP2D6 metabolite) and terfenadine alcohol (CYP3A4 metabolite) were measured by LC/MS/MS.
(§6) As a control, DMSO (the solvent for dissolving Compound (V)) was added solely to the reaction system. The remaining activity (%) of Compound (V), relative to the control (100%), was calculated at each concentration of the compound, and the IC50 was calculated by reverse presumption by a logistic model using the concentration and the inhibition rate.

CYP2C19 = biological target: T3, CYP2C19 (Homo sapiens, UniProt P33261); test: biochemical; format: in vitro ADME; conditions: pooled human hepatic microsome 0.2 mg protein/mL, 15 minutes, 37° C.
T3 construct: Using commercially available pooled human hepatic microsome; from tissue
T3 sequence (P33261 whole entry): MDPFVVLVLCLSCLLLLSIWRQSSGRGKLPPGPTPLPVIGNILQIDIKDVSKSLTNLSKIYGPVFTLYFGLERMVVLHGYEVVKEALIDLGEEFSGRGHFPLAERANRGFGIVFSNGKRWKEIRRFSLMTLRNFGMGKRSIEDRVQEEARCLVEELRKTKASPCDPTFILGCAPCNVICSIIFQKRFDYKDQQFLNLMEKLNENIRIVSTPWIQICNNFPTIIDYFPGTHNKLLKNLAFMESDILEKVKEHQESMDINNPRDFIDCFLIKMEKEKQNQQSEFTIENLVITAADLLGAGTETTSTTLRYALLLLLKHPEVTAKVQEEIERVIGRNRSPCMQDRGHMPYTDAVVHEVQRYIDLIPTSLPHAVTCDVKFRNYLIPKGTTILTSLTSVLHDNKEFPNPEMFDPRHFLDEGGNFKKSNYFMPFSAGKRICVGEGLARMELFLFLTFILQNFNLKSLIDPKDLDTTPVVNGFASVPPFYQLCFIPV
Source text: as §1, §2, §3, §4, §5, §6

CYP1A2 = biological target: T4, CYP1A2 (Homo sapiens, UniProt P05177); test: biochemical; format: in vitro ADME; conditions: pooled human hepatic microsome 0.2 mg protein/mL, 15 minutes, 37° C.
T4 construct: Using commercially available pooled human hepatic microsome; from tissue
T4 sequence (P05177 1-516): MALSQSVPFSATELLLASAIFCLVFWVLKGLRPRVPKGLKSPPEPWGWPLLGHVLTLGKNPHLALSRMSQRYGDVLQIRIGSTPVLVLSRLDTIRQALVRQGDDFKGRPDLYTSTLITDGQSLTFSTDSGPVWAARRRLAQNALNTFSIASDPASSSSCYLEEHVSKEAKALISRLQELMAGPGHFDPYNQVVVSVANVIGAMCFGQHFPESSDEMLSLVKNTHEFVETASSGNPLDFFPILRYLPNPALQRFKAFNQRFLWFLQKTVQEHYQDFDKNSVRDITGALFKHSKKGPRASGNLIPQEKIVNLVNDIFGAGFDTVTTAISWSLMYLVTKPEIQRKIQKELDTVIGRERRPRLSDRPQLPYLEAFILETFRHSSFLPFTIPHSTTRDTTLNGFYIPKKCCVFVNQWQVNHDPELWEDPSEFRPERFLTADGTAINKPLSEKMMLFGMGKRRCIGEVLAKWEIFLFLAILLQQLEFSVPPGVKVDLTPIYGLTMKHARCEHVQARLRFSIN
Source text: as §1, §2, §3, §4, §5, §6

CYP2C9 = biological target: T5, CYP2C9 (Homo sapiens, UniProt P11712); test: biochemical; format: in vitro ADME; conditions: pooled human hepatic microsome 0.2 mg protein/mL, 15 minutes, 37° C.
T5 construct: Using commercially available pooled human hepatic microsome; from tissue
T5 sequence (P11712 whole entry): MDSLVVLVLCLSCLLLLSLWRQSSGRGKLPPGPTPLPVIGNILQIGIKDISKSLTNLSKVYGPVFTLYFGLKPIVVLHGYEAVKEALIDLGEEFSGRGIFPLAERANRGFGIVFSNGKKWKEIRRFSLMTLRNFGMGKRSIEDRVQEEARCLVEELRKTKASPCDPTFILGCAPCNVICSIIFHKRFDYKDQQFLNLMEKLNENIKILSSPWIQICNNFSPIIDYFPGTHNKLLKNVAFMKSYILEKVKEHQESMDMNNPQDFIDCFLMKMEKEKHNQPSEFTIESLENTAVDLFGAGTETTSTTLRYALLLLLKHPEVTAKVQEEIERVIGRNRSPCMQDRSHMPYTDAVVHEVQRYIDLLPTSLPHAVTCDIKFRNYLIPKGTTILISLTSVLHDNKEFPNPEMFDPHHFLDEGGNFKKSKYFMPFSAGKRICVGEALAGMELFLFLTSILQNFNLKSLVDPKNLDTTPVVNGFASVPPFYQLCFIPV
Source text: as §1, §2, §3, §4, §5, §6

[5] = Plasma concentration after oral administration of Compound (VI) to rats; format: in vivo; conditions: after oral administration of Compound (VI) to rats under non-fasting condition
Source text: FIG. 7 is a time-course of the concentration in plasma of the compound of formula (V) after oral administration of the compound of formula (VI), which is a prodrug of the compound of formula (V), to rats under non-fasting condition.
FIG. 8 is a time-course of the concentration in plasma of the compound of formula (VI) after oral administration of the compound of formula (VI), which is a prodrug of the compound of formula (V), to rats under non-fasting condition.
FIG. 7 and FIG. 8 show the time-course of the concentration in plasma of Compound (V) and its prodrug Compound (VI) after oral administration of Compound (VI) to rats under non-fasting condition.

T1 sequence (P08684 whole entry): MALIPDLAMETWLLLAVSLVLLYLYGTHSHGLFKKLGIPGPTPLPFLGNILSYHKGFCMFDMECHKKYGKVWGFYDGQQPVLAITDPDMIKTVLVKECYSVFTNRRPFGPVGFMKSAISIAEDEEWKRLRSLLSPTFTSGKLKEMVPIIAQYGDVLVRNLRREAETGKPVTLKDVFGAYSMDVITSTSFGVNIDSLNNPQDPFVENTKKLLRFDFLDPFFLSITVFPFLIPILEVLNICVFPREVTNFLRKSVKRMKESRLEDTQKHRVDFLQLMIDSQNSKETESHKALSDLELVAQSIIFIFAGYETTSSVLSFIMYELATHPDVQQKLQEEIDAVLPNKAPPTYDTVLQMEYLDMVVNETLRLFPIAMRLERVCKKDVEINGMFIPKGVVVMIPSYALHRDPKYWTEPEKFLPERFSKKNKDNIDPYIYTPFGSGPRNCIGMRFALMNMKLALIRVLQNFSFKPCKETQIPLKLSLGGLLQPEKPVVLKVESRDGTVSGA

Structure (SMILES) | IC50 (CYP3A4 [1]) | photohemolysis [2] | CYP3A4 fluorescent MBI (difference in IC50 values with/without pre-incubation) (CYP3A4 [3]) | remaining rate in oxidative metabolism [4] | IC50 (CYP2D6) | IC50 (CYP2C19) | IC50 (CYP1A2) | IC50 (CYP2C9) | concentration in plasma sample [5]
O=C1c2c(O)c(=O)ccn2N([C@@H]2c3ccccc3SCc3c2ccc(F)c3F)[C@@H]2COCCN12 [Compound (V)] | > 20 µM | (−) ((−): less than 10% for photohemolysis rate and less than 0.05 for the change in absorbance at 630 nm) | (−) (a difference of 3 μM or less was defined as (−)) | 90.1% | > 20 µM | > 20 µM | > 20 µM | > 20 µM | –
COC(=O)OCOc1c2n(ccc1=O)N([C@@H]1c3ccccc3SCc3c1ccc(F)c3F)[C@@H]1COCCN1C2=O [Compound (VI)] | – | – | – | – | – | – | – | – | below the limit of quantification
